The record followed here is patent publication US7414041B2 (Trustees Of Tufts College, priority 1991, dated 2008).

Molecules are shown by their SMILES. Read-outs that look alike come from different tables or passages of the source.

What all share (type): cell-based
The test system of experiment [1] is E. coli Tc^s (MI 300-225). The experiment is described as follows: susceptibility testing MIC/MLC, drug alone. As to conditions: Tc^s.
Experiment [2] deals with E. coli Class A Tc^r (DI-299).
The test system of experiment [3] is E. coli Class β Tc^r (DI-209).
Experiment [4] deals with S. aureus Tc^s (RN450). The experiment is described as follows: susceptibility testing MIC/MLC, drug alone. As to conditions: for MLC: kills 99.9%.
The subject of experiment [5] is S. aureus Tc^r (RN4250). The following applies: Tc^r RN4250; for MLC: kills 99.9%.
The subject of experiment [6] is E. faecalis Tc^s (ATCC9790r). The experiment is described as follows: susceptibility testing MIC/MLC, drug alone.
For experiment [7], the system named is E. faecalis Tc^r (L) (ATCC9790r/Tet L). The following applies: Tc^r (L).
The subject of experiment [8] is E. faecalis Tc^r (M) (ATCC9790r/Tet M).
Experiment [9] relates to E. coli D1-299 (Tet A).
Experiment [10] relates to S. aureus 4250 (Tet K). The experiment is described as follows: MIC/MLC chart, analog with and without doxycycline.
The test system of experiment [11] is E. faecalis 158 (Tet L). The experiment is described as follows: MIC/MLC chart, analog with and without doxycycline.
For experiment [12], the system named is E. faecalis 211 (Tet M). The experiment is described as follows: MIC/MLC chart, analog with and without doxycycline.
Setting [13] is: doxycycline alone 1.56 μg/ml (Doxy Control).
The mark [14] stands for this setting: doxycycline alone 3.12 μg/ml (Doxy Control).
Setting [15] is: doxycycline alone 6.25 μg/ml (Doxy Control).
Setting [16] is: doxycycline alone 12.5 μg/ml (Doxy Control).

Regarding `CN(C)c1ccc(O)c2c1C[C@H]1C[C@H]3[C@H](N(C)C)C(=O)C(C(N)=O)=C(O)[C@@]3(O)C(=O)C1=C2O` [Minocycline, reference compound], the “MIC” value in experiment [1] (1st column) is below 4 µg; in [1] (2nd column) it was below 4 µg; in experiment [2] (1st column), below 4 µg; in experiment [2] (2nd column), 20 µg; in experiment [3] (1st column), 6 ± 2 µg; in experiment [3] (2nd column), 30 ± 10 µg. In addition, the “MIC” value in [4] was below 0.25 µg; in experiment [5] it was below 0.25 µg; in experiment [6] (1st column) it was below 0.26 µg; in [6] (2nd column) it was above 40 µg; in experiment [7] (1st column), below 0.26 µg; in experiment [7] (2nd column), above 80 µg. For the same compound, the entries for the “MIC” value in experiment [8] (1st column) and in experiment [8] (2nd column) were 10 µg and above 80 µg, respectively. Moreover, the “MLC” value in [4] was 8 µg; in experiment [5], above 80 µg.
For `C[C@H]1c2cccc(O)c2C(O)=C2C(=O)[C@]3(O)C(O)=C(C(N)=O)C(=O)[C@@H](N(C)C)[C@@H]3[C@@H](O)[C@@H]21` [Doxy, Doxycycline, reference compound], the MIC/MLC chart symbol result in [9] (Chart 6A, Doxy Control (doxycycline alone), μg/ml = number in line above) is “◯ and +”; in [10] (Chart 6B, Doxy Control (doxycycline alone), μg/ml = number in line above), “+”; in experiment [11] (Chart 6C, Doxy Control (doxycycline alone), μg/ml = number in line above) it was “+”; in [12] (Chart 6D, Doxy Control (doxycycline alone), μg/ml = number in line above) it was “↓ and +”. The “growth / no growth (MIC) / killing (MLC) symbol” value (from here on “growth / no growth”) was “+” in experiment [9] (doxy alone 1.56 μg/ml); “+” in [9] (doxy alone 3.12 μg/ml); “+” in experiment [9] (doxy alone 6.25 μg/ml); “+” in experiment [9] (doxy alone 12.5 μg/ml); “◯” in experiment [9] (doxy alone 25 μg/ml); “+” in [10] (doxy alone 1.56 μg/ml). Also, the “growth / no growth” value in experiment [10] (doxy alone 3.12 μg/ml), in [10] (doxy alone 6.25 μg/ml), in experiment [10] (doxy alone 12.5 μg/ml), in experiment [11] (doxy alone 1.56 μg/ml), in experiment [11] (doxy alone 3.12 μg/ml) and in [11] (doxy alone 6.25 μg/ml) was “+” throughout. Further, the “growth / no growth” value was “↓” in experiment [11] (doxy alone 12.5 μg/ml); “+” in [12] (doxy alone 1.56 μg/ml); “+” in [12] (doxy alone 3.12 μg/ml); “+” in experiment [12] (doxy alone 6.25 μg/ml); “+” in [12] (doxy alone 12.5 μg/ml); “↓” in experiment [12] (doxy alone 25 μg/ml). The “MIC/MLC chart: growth or killing” value in experiment [9] (setting [13]), in experiment [9] (setting [14]), in experiment [9] (setting [15]), in [9] (setting [16]), in [9] (doxycycline alone 25.0 μg/ml (Doxy Control)) and in [10] (setting [13]) was “+” throughout. Besides, the “MIC/MLC chart: growth or killing” value in experiment [10] (setting [14]) is “+”; in experiment [10] (setting [15]), “+”; in experiment [10] (setting [16]) it was “◯”; in experiment [11] (setting [13]) it was “+”; in experiment [11] (setting [14]) it was “+”; in experiment [11] (setting [15]), “+”. The “MIC/MLC chart: growth or killing” value in [12] (setting [13]), in experiment [12] (setting [14]), in [12] (setting [15]) and in experiment [12] (setting [16]) was “+” throughout.
Take `CN(C)C1C(O)=C(C(N)=O)C(=O)C2(O)C(O)=C3C(=O)c4c(O)cccc4C(C)(O)C3CC12` (stereo not shown) [Tetracycline, 4-(Dimethylamino)-1,4,4a,5,5a,6-11,12a-octahydro-3,6,10,12,12a-pentahydroxy-6-methyl-1-11-dioxo-2-naphth acenecarboxamide, reference compound]: the “MIC” value in experiment [1] (1st column) is 0.6 ± 0.26 µg; in [1] (2nd column) it was 40 ± 0.26 µg; in [2] (1st column), 160 ± 0.26 µg; in [2] (2nd column), 200 µg; in experiment [3] (1st column), above 200 µg; in experiment [3] (2nd column) it was above 200 µg. Further, the “MIC” value in experiment [4] is 0.75 ± 0.25 µg; in experiment [5], 90 ± 10 µg; in experiment [6] (1st column), 0.26 µg; in experiment [6] (2nd column), above 200 µg; in experiment [7] (1st column) it was 90 ± 10 µg; in experiment [7] (2nd column), above 300 µg. Also, the “MIC” value in experiment [8] (1st column) worked out at 100 µg; in experiment [8] (2nd column), 300 µg. Also, the “MLC” value is above 6 µg in experiment [4] and 100 µg in [5].
